Experiments:
SK-N-SH cells = assay: Dose-effect relationship on cellular ATP levels in cultured SK-N-SH cells; format: cell-based, human
Experimental: SK-N-SH cells were seeded in a 6-well plate at a density of 6×10^4 per well. Cells were cultured for 12 hours under 5% O2, and the drug was added. Cells were harvested after 48 hours. Cellular ATP levels were measured using a Promega ATP assay kit. The experiment was repeated 5 times to 7 times.

Wild-type mice (C57BL/6) = assay: Blood glucose in wild-type mice; format: in vivo; conditions: 0.1 mg/kg i.p., C57BL/6, fasted 6 hours after administration
Experimental: Wild-type mice (C57BL/6) aged 3 months to 4 months under normal feeding conditions were intraperitoneally injected with different drugs at 0.1 mg/kg. Mice injected with normal saline served as the control group. Mice were fasted for 6 hours after administration. Blood was collected from the tail of each mouse to measure blood glucose levels. Each group consisted of 9 mice.

[1] = tested on: MPTP-induced Parkinson's disease model mice; assay: MPTP-induced mouse model of Parkinson's disease, rotarod and tyrosine hydroxylase Western blot; format: in vivo; conditions: terazosin 0.1 mg/Kg
Experimental: Male mice aged 3 months were used and fed normally. The acute MPTP modeling method (see Sonsalla P K, Heikkila R E. The influence of dose and dosing interval on MPTP-induced dopaminergic neurotoxicity in mice. Eur J Pharmacol 1986; 129(3): 339-45.) was employed. MPTP was injected intraperitoneally four times in total at a dose of 20 mg/kg body weight per injection, with a 2-hour interval between each injection. MPTP was dissolved in normal saline, and the control group received an equal dose of normal saline. T2 was dissolved in DMSO and diluted with normal saline to the desired concentration. Accordingly, equal doses of DMSO and normal saline were administered during the treatment. On the day of MPTP model establishment, mice were administered either T2 (treatment group) or DMSO (control group). Subsequently, mice in all groups were administered the corresponding drugs daily. Mouse behavior was tested using a rotarod (E103, UGO BASILE). First, mice were pre-trained for two consecutive days at a constant speed of 15 revolutions per minute (15 rpm) until they could stay on the rod for more than 60 seconds. On day 7 after MPTP injection, mice were tested on the rotarod in an accelerating mode (2 rpm to 45 rpm). The latency to fall from the rotarod was recorded, and the behavior was monitored by a camera. After the experiment, the mice were sacrificed, and the striatal brain tissue was harvested for Western blot assay. Tyrosine hydroxylase (TH) is a protein specifically expressed in dopaminergic neurons. Therefore, whether dopaminergic neurons were damaged can be determined by Western blot assay using an anti-TH antibody.

primary mouse neurons = assay: Cellular status and glucose metabolism-related gene expression in primary mouse neurons; format: cell-based; conditions: normoxic, 72 h; TZ 10 μM, T6 10 PM (so in the source)
Text: In FIG. 10, A) representative bright-field images show the cellular status of primary neurons after treatment. […] The analyzed genes included G6PD, HK2, LDHA, PDK1, PGK1, and SLC2A1/GLUT1. […] TZ treatment produced a similar but generally more moderate metabolic gene-response profile, including increased LDHA, PDK1, and SLC2A1/GLUT1 expression. […] Error bars indicate variation among measurements. […] The results support the use of T6 or related compounds as agents capable of regulating neuronal metabolic status and glucose metabolism-associated pathways.

[2] = tested on: MPTP-induced Parkinsonian mouse model; assay: MPTP-induced Parkinsonian mouse model, rotarod and TH Western blot (T6); format: in vivo; conditions: TZ, MPTP 20 mg/kg
Experimental: Mice were administered MPTP at 20 mg/kg to induce Parkinsonian motor impairment and dopaminergic neuronal injury. […] In FIG. 13, A) motor coordination and endurance were assessed using the rotarod test and are expressed as the time remaining on the rotating rod. […] Actin was used as a loading control. […] Data are presented as mean±error bars, with individual points representing biological replicates. Significance of one-way ANOVA analysis is indicated as P<0.05 (*), P<0.01 (**), and P<0.001 (***).

db/db mice = assay: Acute glucose-response assay in non-fasted db/db mice; format: in vivo; conditions: s.c., 2 h; TZ 0.5, liraglutide 0.6, T6 0.5 mg/Kg
Experimental: The db/db mice were used to evaluate the glucose-lowering activity of compound T6 in comparison with reference metabolic agents (TZ 0.5 mg/Kg, liraglutide 0.6 mg/Kg, T6 0.5 mg/Kg). In FIG. 15, A) for the acute glucose-response assay, drugs were administered to non-fasted db/db mice. Immediately after drug administration (s. c.), mice were deprived of food and water, and blood glucose levels were measured from tail blood samples 2 h later. The relative percentage change in blood glucose was calculated by comparing glucose levels before and after treatment in the same animal. […] HbA1c levels were then measured using a glycated hemoglobin A1c enzyme-linked immunosorbent assay, also referred to as a mouse HbA1c ELISA assay. […] Data are presented as mean±error bars, with individual circles representing individual animals. Statistical significance is indicated as P<0.001 (**) and P<0.0001 (***).

[3] = tested on: phosphoglycerate kinase 1 (Pgk1); conditions: cited from earlier work
[4] = tested on: mouse and rat models of Parkinson's disease, Alzheimer's disease, multiple system atrophy; conditions: cited from earlier work
diabetic patients = conditions: cited from earlier work
rats = conditions: combined administration of terazosin and propranolol; cited from earlier work
patients = conditions: cited from earlier work
Pgk1 = target: T1, Pgk1 (Homo sapiens, UniProt P00558); assay: In vitro biochemical Pgk1 enzymatic activity assay (NADH production); parameters: GAPDH-coupled NADH assay; conditions: 1.6 mM GAP, 1 mM β-NAD, 1 mM ADP, 20 ng/μL GAPDH, pH 8.6, 10 minutes
T1 sequence (P00558 1-417): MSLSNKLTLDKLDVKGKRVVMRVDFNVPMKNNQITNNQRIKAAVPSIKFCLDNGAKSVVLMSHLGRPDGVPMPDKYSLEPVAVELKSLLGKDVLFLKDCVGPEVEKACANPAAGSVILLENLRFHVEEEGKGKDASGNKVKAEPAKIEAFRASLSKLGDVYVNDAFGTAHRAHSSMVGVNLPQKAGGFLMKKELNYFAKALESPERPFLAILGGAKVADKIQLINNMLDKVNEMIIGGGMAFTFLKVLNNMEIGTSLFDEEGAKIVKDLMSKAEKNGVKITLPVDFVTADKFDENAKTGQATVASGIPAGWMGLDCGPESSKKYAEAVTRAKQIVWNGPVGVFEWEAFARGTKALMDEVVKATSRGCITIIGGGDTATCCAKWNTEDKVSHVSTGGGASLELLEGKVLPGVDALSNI
Experimental: Human Pgk1 cDNA was cloned into the pEASYTM-E2 vector (TransGen Biotech) containing a His tag. Protein expression was induced in BL21(DE3) chemocompetent cells (TransGen Biotech) with 0.5 mM IPTG. After lysing cells in extraction buffer (20 mM sodium phosphate, 500 mM NaCl, 5 mM imidazole, 5% glycerol, protease inhibitor cocktail, pH 7.9), the supernatant was purified with nickel beads (AdarBiotech). The His-tagged Pgk1 was eluted with the elution buffer (20 mM sodium phosphate, 500 mM NaCl, 80 mM imidazole, protease inhibitor cocktail, pH 7.9). The activity of Pgk1 can be measured by monitoring the rate of NADH production, as NADH accumulated as the reaction proceeded. Purified Pgk1-His protein ([…]) was added to the reaction buffer (20 mM Tris, 100 mM NaCl, 2 mM DTT, 0.1 mM MgSO4, 10 mM NaHPO4, pH 8.6), and the substrates (1.6 mM GAP, 1 mM β-NAD, 1 mM ADP, 20 ng/μL GAPDH) was added. […] After reaction for 10 minutes at room temperature, the absorbance wavelength at 339 nm was measured using a microplate reader (Molecular Devices, SpectraMax i3x), and this wavelength corresponds to NADH levels.

For `COc1cc2nc(N3CCN(C(=O)C4CCCO4)CC3)nc(N)c2cc1OC` (stereo not drawn) [Terazosin, terazosin], which “Inhibition of cell growth” value (SK-N-SH cells; 50 μM, SK-N-SH cells) is on record?
The value was “a tendency to inhibit cell growth”.

And the “Optimal dose for cellular ATP levels” value (SK-N-SH cells; doses 5, 10 and 50 μM, 48 hours, 5% O2)?
The value was 10 µM.

And the Hypoglycemic effect (Wild-type mice (C57BL/6))?
Its Hypoglycemic effect is “did not exhibit a hypoglycemic effect”.

And the “Motor ability (rotarod)” value ([1]; day 7 after MPTP)?
The value was “improved the motor ability of mice”.

What about the “Tyrosine hydroxylase level / dopaminergic neurons” value ([1]; striatum, Western blot) of the same compound?
Its value is “exerted a protective effect on dopaminergic neurons”.

What about the Neuronal cellular morphology/status (primary mouse neurons) of the same compound?
Its Neuronal cellular morphology/status is “detectable changes in neuronal cellular morphology/status”.

And the “Rotarod performance (TZ)” value [2]?
Its value is “weaker improvement”.

What about the “Acute change in blood glucose” value (db/db mice) of the same compound?
Its value is “weaker acute effect”.

And the “Effect on Pgk1, high concentration” value ([3]; high concentrations)?
The value was “can inhibit Pgk1”.

And the “Effect on Pgk1, low concentration” value ([3]; low concentrations)?
The value was “can activate Pgk1”.

What about the “Binding to / activation of Pgk1” value ([3]; previous studies) of the same compound?
The value was “can activate Pgk1”.

What about the “Dissociation of ATP from Pgk1 protein” value ([3]; published studies) of the same compound?
Its value is “promoted the dissociation of ATP from the Pgk1 protein”.

And the “Therapeutic and prophylactic effects” value [4]?
The value was “exerts therapeutic and prophylactic effects”.

What about the “Blood glucose and lipid levels” value (diabetic patients) of the same compound?
Its value is “efficacy is extremely limited or ineffective”.

And the “Blood glucose in rats” value (rats)?
Its value is “did not affect blood glucose in rats”.

And the Side effects (patients)?
The Side effects was “intraoperative floppy iris syndrome (IFIS), hypotension, fatigue, dizziness, syncope, and blurred vision”.

What about the “Concentration for best activation of Pgk1” value (Pgk1; role: activator) of the same compound?
The value was 1 µM.

What about the “Effect on Pgk1 enzymatic activity at high concentration” value (Pgk1; role: inhibitor, 100 μM) of the same compound?
Its value is “can inhibit Pgk1 enzymatic activity”.
